Literature values in patent US7258850B2, “Methods and compositions for treating erectile dysfunction” (Aradigm Corporation, priority 1999, dated 2007).
Counter-ions that a name gives are not always drawn. Like-named read-outs stand apart in the source and are kept apart here. One block for each compound: values may come before it. No end group written: not given here.

Columns and labels:
[1] = tested on: smooth muscle; conditions: intracavernous
[2] = tested on: dopamine D1 and D2 receptor; conditions: rats, apomorphine in combination with sildenafil
[3] = tested on: Rho-kinase; conditions: applied topically, rats
[4] = tested on: human corpus carvernosum; conditions: human tissue
[5] = tested on: rabbit corpus carvernosum; conditions: rabbit tissue
[6] = molecular target: T1, sGC (Rattus norvegicus, UniProt P19686+P20595); conditions: administered intracavernously, rats
T1 construct: host or cells: in vivo, rat corpus cavernosum
T1 sequence (P20595 1-619): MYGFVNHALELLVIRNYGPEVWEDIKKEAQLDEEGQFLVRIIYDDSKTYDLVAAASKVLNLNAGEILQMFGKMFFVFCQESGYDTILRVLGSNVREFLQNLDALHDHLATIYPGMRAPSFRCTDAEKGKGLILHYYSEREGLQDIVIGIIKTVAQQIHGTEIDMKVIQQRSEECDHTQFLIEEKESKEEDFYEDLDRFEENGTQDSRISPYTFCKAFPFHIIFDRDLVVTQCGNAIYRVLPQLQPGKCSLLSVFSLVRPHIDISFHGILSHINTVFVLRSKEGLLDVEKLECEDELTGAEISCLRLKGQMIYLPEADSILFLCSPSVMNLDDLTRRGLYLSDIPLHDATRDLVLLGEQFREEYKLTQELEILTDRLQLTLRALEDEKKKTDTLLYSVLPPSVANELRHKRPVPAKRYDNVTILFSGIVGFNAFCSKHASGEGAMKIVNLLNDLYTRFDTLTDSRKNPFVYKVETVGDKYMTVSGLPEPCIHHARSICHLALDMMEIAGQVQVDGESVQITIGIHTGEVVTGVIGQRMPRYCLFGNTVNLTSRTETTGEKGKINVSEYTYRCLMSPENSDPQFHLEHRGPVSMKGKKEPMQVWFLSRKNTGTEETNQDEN
T1 sequence (P19686 1-690): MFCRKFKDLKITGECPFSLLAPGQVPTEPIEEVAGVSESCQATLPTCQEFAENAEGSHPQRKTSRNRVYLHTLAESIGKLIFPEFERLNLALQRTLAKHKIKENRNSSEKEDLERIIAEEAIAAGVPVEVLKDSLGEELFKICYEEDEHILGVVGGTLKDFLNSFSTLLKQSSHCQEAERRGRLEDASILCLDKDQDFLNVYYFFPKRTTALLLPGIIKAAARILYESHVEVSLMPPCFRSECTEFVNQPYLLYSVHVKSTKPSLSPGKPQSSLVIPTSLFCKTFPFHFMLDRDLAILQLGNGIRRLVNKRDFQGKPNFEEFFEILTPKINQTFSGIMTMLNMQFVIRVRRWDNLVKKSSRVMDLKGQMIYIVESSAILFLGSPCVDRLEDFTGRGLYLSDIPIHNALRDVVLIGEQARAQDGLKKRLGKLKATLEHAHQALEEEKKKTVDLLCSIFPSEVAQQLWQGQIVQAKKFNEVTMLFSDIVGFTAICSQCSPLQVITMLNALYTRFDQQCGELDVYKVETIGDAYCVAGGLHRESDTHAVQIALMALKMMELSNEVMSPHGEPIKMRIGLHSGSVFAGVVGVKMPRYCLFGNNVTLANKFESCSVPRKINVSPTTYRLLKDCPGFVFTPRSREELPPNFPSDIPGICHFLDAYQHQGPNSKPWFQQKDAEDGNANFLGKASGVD

Compound: Vasoactive intestinal peptid: intracavernous drug, potent smooth muscle relaxant (HSDAVFTDNYTRLRKQMAVKKYLNSILN; ends and bridges not checked; UniProt P01282 125-152, looked up)
duration of effect [1]: up to 2.5 hours

Compound: CN1CCc2cccc3c2[C@H]1Cc1ccc(O)c(O)c1-3 [Apomorphine]
duration of erectile response [2]: prolonged in combination with sildenafil
duration of erectile response ([2]; listed as apomorphine): prolonged by sildenafil

solubility in water: relatively insoluble in water
Compound: CCCc1nn(C)c2c(=O)[nH]c(-c3cc(S(=O)(=O)N4CCN(C)CC4)ccc3OCC)nc12 [sildenifil citrate, Sildenafil citrate]

Compound: C[C@@H](N)[C@H]1CC[C@H](C(=O)Nc2ccncc2)CC1 [Y-27632]
erection [3]: stimulated erection

Compound: Nc1nc(-c2nn(Cc3ccccc3F)c3ncccc23)ncc1C1CC1 [BAY-41-2272]
relaxation of corpus cavernosum relative to YC-1 [4]: more potently than YC-1
relaxation of corpus cavernosum relative to YC-1 [5]: more potently than YC-1

Compound: OCc1ccc(-c2nn(Cc3ccccc3)c3ccccc23)o1 [YC-1, 3-(5′-hydroxymethyl-2′furyl)-1-benzyl-indazole]
erection [6]: elicited dose-dependent erection
